One assay deals with T1, hChoKβ FL (Homo sapiens, UniProt Q9Y259).
T1 construct: hChoKβ full length (FL), corresponding to aminoacids 2-395; GST (N, cleaved yes); Prescission Protease recognition site (N, cleaved yes); made in house; host or cells: Escherichia coli BL21pLysS (DE3)
In words: Biochemical kinase inhibition assay (Kinase-Glo Luminescent Kinase Assay) on hChoKβ FL. As to conditions: ATP 5 μM, choline 20 μM, 60 minutes at rt; read-out: IC50 ChoKβ.

The target of another assay is T2, Δ49N-hChoKα (Homo sapiens, UniProt P35790).
T2 construct: cDNA fragment 362-1534, corresponding to aminoacids 50-457; GST (N, cleaved yes); Prescission Protease recognition site (N, cleaved yes); made in house; host or cells: Escherichia coli BL21pLysS (DE3)
The experiment in a line: Biochemical kinase inhibition assay (Kinase-Glo Luminescent Kinase Assay) on Δ49N-hChoKα. Background: Kinase-Glo measures the ATP left after a reaction by luminescence.

The mark [1] stands for this setting: ATP 5 μM, choline 5 μM, 60 minutes at rt, read-out: IC50 ChoKα.

Counter-ions that a name gives are not always drawn. Like-named read-outs stand apart in the source and are kept apart here.

T1 sequence (Q9Y259 2-395): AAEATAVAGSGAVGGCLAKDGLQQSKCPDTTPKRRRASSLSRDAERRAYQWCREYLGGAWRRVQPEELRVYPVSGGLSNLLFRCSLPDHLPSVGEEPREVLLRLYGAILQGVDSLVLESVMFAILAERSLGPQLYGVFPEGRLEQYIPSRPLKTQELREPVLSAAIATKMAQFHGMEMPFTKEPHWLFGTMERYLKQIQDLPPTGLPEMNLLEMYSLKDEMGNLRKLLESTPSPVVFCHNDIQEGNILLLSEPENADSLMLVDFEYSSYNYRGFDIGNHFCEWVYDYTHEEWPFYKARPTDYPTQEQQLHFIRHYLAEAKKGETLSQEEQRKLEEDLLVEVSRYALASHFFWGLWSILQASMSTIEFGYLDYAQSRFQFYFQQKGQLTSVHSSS
T2 sequence (P35790 50-457, stated change not applied): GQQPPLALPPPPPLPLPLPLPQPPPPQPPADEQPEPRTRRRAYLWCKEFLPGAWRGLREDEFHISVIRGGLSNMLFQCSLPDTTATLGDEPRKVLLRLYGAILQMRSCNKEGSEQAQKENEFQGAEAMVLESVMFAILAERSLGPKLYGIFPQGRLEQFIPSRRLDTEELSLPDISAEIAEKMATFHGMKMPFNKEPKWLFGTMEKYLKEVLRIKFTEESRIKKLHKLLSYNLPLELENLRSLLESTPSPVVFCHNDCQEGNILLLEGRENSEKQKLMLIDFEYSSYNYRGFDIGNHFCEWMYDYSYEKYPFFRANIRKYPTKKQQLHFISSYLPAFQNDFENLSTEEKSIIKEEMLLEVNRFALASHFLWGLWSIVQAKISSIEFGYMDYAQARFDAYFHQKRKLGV
Method for Δ49N-hChoKα: The biochemical activity of compounds against Δ49N-ChoKα and ChoKβ FL were determined using the Kinase-Glo™ Luminescent Kinase Assay (Promega cat. V6711).
Compounds were 3-fold serially diluted from 10 to 0.0005 μM, then incubated for 60 minutes at rt in the presence of ATP 5 μM, choline (5 μM for ChoKα and 20 μM for ChoKβ) and enzyme in a final volume of 19 μL of kinase buffer (50 mM Hepes pH 7.5, 10 mM MgCl2, 1 mM DTT, 3 μM Na3VO4 and 0.2 mg/mL BSA). The final concentration of DMSO was 1%.
At the end of the incubation, an amount of 19 μL of KinaseGlo Reagent was added to each well to stop the reaction and after 30 minutes the luminescence signal was measured using ViewLux reader (Perkin Elmer).
The data per each molecule are analyzed by an internally customized version of the SW package “Assay Explorer” which provides sigmoidal fittings of the ten-dilution curves for IC50 determination using a 4 parameter logistic equation: y=bottom+(top−bottom)/(1+10^((log IC50−x)*slope)) where x is the logarithm of the inhibitor concentration, y is the response; y starts at bottom and goes to top with a sigmoid shape.

For `Cn1c(NC(=O)[C@H]2CC[C@@H](n3cnc4c(N)nc(Cl)nc43)CC2)nc2ccccc21` [cpd 95, cis-4-(6-amino-2-chloro-9H-purin-9-yl)-N-(1-methyl-1H-benzimidazol-2-yl)cyclohexanecarboxamide], the concentration for half-maximal inhibition (IC50) was found to be 7120 nM on hChoKβ FL and 268 nM at Δ49N-hChoKα (setting [1]).
Take `Nc1nc(Cl)nc2c1ncn2[C@H]1CC[C@@H](C(=O)Nc2nc(CN3CCC(N)CC3)cs2)CC1` [cpd 120, cis-4-(6-amino-2-chloro-9H-purin-9-yl)-N-{4-[(4-aminopiperidin-1-yl)methyl]-1,3-thiazol-2-yl}cyclohexanecarboxamide]: the IC50 was above 10000 nM on hChoKβ FL and 40 nM at Δ49N-hChoKα (setting [1]).
For the compound `Nc1nc(Cl)nc2c1ncn2[C@H]1CC[C@@H](C(=O)Nc2nc3c(s2)[C@H]2CC[C@@H](C3)N2)CC1` [cpd 189, cis-4-(6-amino-2-chloro-9H-purin-9-yl)-N-[(5S,8R)-5,6,7,8-tetrahydro-4H-5,8-epiminocyclohepta[d][1,3]thiazol-2-yl]cyclohexanecarboxamide hydrochloride], the half-inhibitory concentration (IC50) at hChoKβ FL was above 10000 nM; against Δ49N-hChoKα it was 27 nM.
Regarding `COc1cccc(NC(=O)[C@H]2CC[C@@H](n3cnc4c(N)nc(-c5cccc(C(=O)Nc6ccc(CN7CCC(N(C)C)CC7)cc6)c5)nc43)CC2)c1` [cpd 31, 3-(6-amino-9-{cis-4-[(3-methoxyphenyl)carbamoyl]cyclohexyl}-9H-purin-2-yl)-N-(4-{[4-(dimethylamino)piperidin-1-yl]methyl}phenyl)benzamide], the IC50 was above 10000 nM on hChoKβ FL and 40 nM at Δ49N-hChoKα (setting [1]).
In the same order, the values of `CC(C)(C)OC(=O)N1CCc2nc(NC(=O)[C@H]3CC[C@@H](n4cnc5c(N)nc(Cl)nc54)CC3)sc2C1` [cpd 169, tert-butyl 2-({[cis-4-(6-amino-2-chloro-9H-purin-9-yl)cyclohexyl]carbonyl}amino)-6,7-dihydro[1,3]thiazolo[5,4-c]pyridine-5(4H)-carboxylate] are 5550 nM and 52 nM.
With `COc1cccc2sc(NC(=O)[C@H]3CC[C@@H](n4cnc5c(N)nc(I)nc54)CC3)nc12` [cpd 116, cis-4-(6-amino-2-iodo-9H-purin-9-yl)-N-(4-methoxy-1,3-benzothiazol-2-yl)cyclohexanecarboxamide], the IC50 at hChoKβ FL is above 10000 nM; on Δ49N-hChoKα (setting [1]), 43 nM.
Taken in the same sequence, the figures for `Nc1nc(Cl)nc2c1ncn2[C@H]1CC[C@@H](C(=O)Nc2nc3cc(F)c(F)cc3s2)CC1` [cpd 168, cis-4-(6-amino-2-chloro-9H-purin-9-yl)-N-(5,6-difluoro-1,3-benzothiazol-2-yl)cyclohexanecarboxamide] were above 10000 nM and 45 nM.
Take `COc1cccc(NC(=O)[C@H]2CC[C@@H](n3cnc4c(N)nc(-c5ccc(C(=O)Nc6ccc(CN7CCC(N(C)C)CC7)cc6)cc5)nc43)CC2)c1` [cpd 33, 4-(6-amino-9-{cis-4-[(3-methoxyphenyl)carbamoyl]cyclohexyl}-9H-purin-2-yl)-N-(4-{[4-(dimethylamino)piperidin-1-yl]methyl}phenyl)benzamide]: the half-maximal inhibitory concentration (IC50) stood at 4570 nM on hChoKβ FL and 21 nM on Δ49N-hChoKα (setting [1]).
On to `COc1cccc(NC(=O)[C@H]2CC[C@@H](n3cnc4c(N)nc(OC)nc43)CC2)c1` [cpd 83, cis-4-(6-amino-2-methoxy-9H-purin-9-yl)-N-(3-methoxyphenyl)cyclohexanecarboxamide], for which the half-inhibitory concentration (IC50) was above 10000 nM on hChoKβ FL and 425 nM at Δ49N-hChoKα (setting [1]).
For the compound `Cc1csc(NC(=O)[C@H]2CC[C@@H](n3cnc4c(N)nccc43)CC2)n1` [cpd 204, cis-4-(4-amino-1H-imidazo[4,5-c]pyridin-1-yl)-N-(4-methyl-1,3-thiazol-2-yl)cyclohexanecarboxamide], the results for the 50% inhibitory concentration (IC50) at hChoKβ FL and at Δ49N-hChoKα (setting [1]) were above 10000 nM and 1810 nM, respectively.
Take `Nc1nc(Cl)nc2c1ncn2[C@H]1CC[C@@H](C(=O)Nc2nnc(C(F)(F)F)s2)CC1` [cpd 64, cis-4-(6-amino-2-chloro-9H-purin-9-yl)-N-[5-(trifluoromethyl)-1,3,4-thiadiazol-2-yl]cyclohexanecarboxamide]: the concentration for half-maximal inhibition (IC50) at hChoKβ FL is above 10000 nM; at Δ49N-hChoKα (setting [1]), 196 nM.
In the same order, the values of `Nc1nc(F)nc2c1ncn2[C@H]1CC[C@@H](C(=O)Nc2nc3c(s2)CCCC3)CC1` [cpd 206, cis-4-(6-amino-2-fluoro-9H-purin-9-yl)-N-(4,5,6,7-tetrahydro-1,3-benzothiazol-2-yl)cyclohexanecarboxamide] are above 10000 nM and 16 nM.
Regarding `Cc1csc(NC(=O)[C@H]2CC[C@@H](n3cnc4c(N)nc(C(N)=O)nc43)CC2)n1` [cpd 146, 6-amino-9-{cis-4-[(4-methyl-1,3-thiazol-2-yl)carbamoyl]cyclohexyl}-9H-purine-2-carboxamide], the IC50 at hChoKβ FL is above 10000 nM; at Δ49N-hChoKα (setting [1]), 73 nM.
Regarding `Cc1csc(NC(=O)[C@H]2CC[C@@H](n3cnc4c(N)nc(-c5cc[nH]n5)nc43)CC2)n1` [cpd 112, cis-4-[6-amino-2-(1H-pyrazol-3-yl)-9H-purin-9-yl]-N-(4-methyl-1,3-thiazol-2-yl)cyclohexanecarboxamide], the IC50 is above 10000 nM on hChoKβ FL and 120 nM at Δ49N-hChoKα (setting [1]).
With `C#Cc1nc(N)c2ncn([C@H]3CC[C@@H](C(=O)Nc4nc(C)cs4)CC3)c2n1` [cpd 77, cis-4-(6-amino-2-ethynyl-9H-purin-9-yl)-N-(4-methyl-1,3-thiazol-2-yl)cyclohexanecarboxamide], the half-inhibitory concentration (IC50) at hChoKβ FL amounted to 5970 nM; on Δ49N-hChoKα (setting [1]), 18 nM.
Turning to `Nc1nc(F)nc2c1ncn2[C@H]1CC[C@@H](C(=O)Nc2nc3c(s2)COCC3)CC1` [cpd 200, cis-4-(6-amino-2-fluoro-9H-purin-9-yl)-N-(6,7-dihydro-4H-pyrano[4,3-d][1,3]thiazol-2-yl)cyclohexanecarboxamide], the IC50 at hChoKβ FL is above 10000 nM; on Δ49N-hChoKα (setting [1]), 24 nM.
In the same order, the values of `COc1cccc2sc(NC(=O)[C@H]3CC[C@@H](n4cnc5c(N)nc(F)nc54)CC3)nc12` [cpd 126, cis-4-(6-amino-2-fluoro-9H-purin-9-yl)-N-(4-methoxy-1,3-benzothiazol-2-yl)cyclohexanecarboxamide] are above 10000 nM and 31 nM.
Taken in the same sequence, the figures for `CC1(C)Cc2nc(NC(=O)[C@H]3CC[C@@H](n4cnc5c(N)nc(Cl)nc54)CC3)sc2CO1` [cpd 195, cis-4-(6-amino-2-chloro-9H-purin-9-yl)-N-(6,6-dimethyl-6,7-dihydro-4H-pyrano[4,3-d][1,3]thiazol-2-yl)cyclohexanecarboxamide] were 6110 nM and 24 nM.
In the same order, the values of `CN(c1nc(CC(N)=O)cs1)C(=O)[C@H]1CC[C@@H](n2cnc3c(N)nc(Cl)nc32)CC1` [cpd 164, cis-4-(6-amino-2-chloro-9H-purin-9-yl)-N-[4-(2-amino-2-oxoethyl)-1,3-thiazol-2-yl]-N-methylcyclohexanecarboxamide] are above 10000 nM and 70 nM.
Consider `Cc1csc(NC(=O)[C@H]2CC[C@@H](n3cnc4c(N)nc(C#N)nc43)CC2)n1` [cpd 102, cis-4-(6-amino-2-cyano-9H-purin-9-yl)-N-(4-methyl-1,3-thiazol-2-yl)cyclohexanecarboxamide], for which the IC50 at hChoKβ FL was above 10000 nM; on Δ49N-hChoKα (setting [1]), 88 nM.
In the same order, the values of `Nc1nc(C(F)(F)F)nc2c1ncn2[C@H]1CC[C@@H](C(=O)Nc2nc3ccc(F)cc3s2)CC1` [cpd 132, cis-4-[6-amino-2-(trifluoromethyl)-9H-purin-9-yl]-N-(6-fluoro-1,3-benzothiazol-2-yl)cyclohexanecarboxamide] are above 10000 nM and 257 nM.
Taken in the same sequence, the figures for `COc1cccc(NC(=O)[C@H]2CC[C@@H](n3cnc4c(N)nc(-c5ccc(C(=O)Nc6ccc(CN7CCN(C)CC7)cc6)cc5)nc43)CC2)c1` [cpd 29, 4-(6-amino-9-{cis-4-[(3-methoxyphenyl)carbamoyl]cyclohexyl}-9H-purin-2-yl)-N-{4-[(4-methylpiperazin-1-yl)methyl]phenyl}benzamide] were 1880 nM and 257 nM.
In the case of `Cc1cccc(NC(=O)[C@H]2CC[C@@H](n3cnc4c(N)nc(-c5ccncc5)nc43)CC2)c1` [cpd 50, cis-4-[6-amino-2-(pyridin-4-yl)-9H-purin-9-yl]-N-(3-methylphenyl)cyclohexanecarboxamide], the IC50 at hChoKβ FL is above 10000 nM; at Δ49N-hChoKα (setting [1]), 311 nM.
Taken in the same sequence, the figures for `Nc1nc(F)nc2c1ncn2[C@H]1CC[C@@H](C(=O)Nc2nc3ccc(F)cc3s2)CC1` [cpd 128, cis-4-(6-amino-2-fluoro-9H-purin-9-yl)-N-(6-fluoro-1,3-benzothiazol-2-yl)cyclohexanecarboxamide] were above 10000 nM and 38 nM.
In the same order, the values of `Cc1csc(NC(=O)[C@H]2CC[C@@H](n3cnc4c(N)nc(-c5cccc(OCc6ccccc6)c5)nc43)CC2)n1` [cpd 100, cis-4-{6-amino-2-[3-(benzyloxy)phenyl]-9H-purin-9-yl}-N-(4-methyl-1,3-thiazol-2-yl)cyclohexanecarboxamide] are above 10000 nM and 248 nM.
Taken in the same sequence, the figures for `COc1ccc(NC(=O)[C@H]2CC[C@@H](n3cnc4c(N)nc(-c5ccncc5)nc43)CC2)cc1OC` [cpd 37, cis-4-[6-amino-2-(pyridin-4-yl)-9H-purin-9-yl]-N-(3,4-dimethoxyphenyl)cyclohexanecarboxamide] were above 10000 nM and 844 nM.
On to `CN1CCc2nc(NC(=O)[C@H]3CC[C@@H](n4cnc5c(N)nc(C#C[Si](C)(C)C)nc54)CC3)sc2C1` [cpd 199, cis-4-{6-amino-2-[(trimethylsilyl)ethynyl]-9H-purin-9-yl}-N-(5-methyl-4,5,6,7-tetrahydro[1,3]thiazolo[5,4-c]pyridin-2-yl)cyclohexanecarboxamide], for which the results for the half-maximal inhibitory concentration (IC50) at hChoKβ FL and against Δ49N-hChoKα were above 10000 nM and 67 nM, respectively.

In general, IC50 refers to the concentration that inhibits the measured activity by half.

(Values after US10683292B2, “Purine and 3-deazapurine analogues as choline kinase inhibitors” (NERVIANO MEDICAL SCIENCES S.R.L., priority 2016, dated 2020).)
